These are literature values, as cited in US20140348811A1, “COMPOSITIONS COMPRISING SUGAR-CYSTEINE PRODUCTS” (MAX INTERNATIONAL, LLC, priority 2011, published 2014).

The conditions of series [1]: administered directly to humans, wide dosage ranges.
The conditions of series [2]: healthy humans, orally 8-10 g per day.
For series [3], the system named is ATP levels. Conditions: dogs subjected to ischemia, about 3 g/day for at least 5 days.
Series [4] relates to irradiation-induced bowel injury. Conditions: mice, 1 g/kg.
Series [5] deals with mice exposed to cyclophosphamide. Conditions: 8 mmol/kg.
Series [6] relates to acetaminophen hepatic and renal toxicity. Particulars: mice, 2 g/kg.
The subject of series [7] is glutathione levels. Particulars: mice, 8 mmol/kg i.p.

SMILES strings stand for the structures.

Turning to `O=C[C@H](O)[C@H](O)[C@H](O)CO` [ribose], in series [1], the toxicity entry was “essentially non-toxic”. Further, in series [2], the exercise capacity entry was “increase exercise capacity”. Further, the ATP levels entry in series [3] was “effectively restored and maintained ATP levels”.
Take `O=C(O)[C@@H]1CSC(C(O)C(O)C(O)CO)N1` (stereo partly drawn) [RibCys, 2(R,S)-D-ribo-(1′,2′,3′,4′-tetrahydroxybutyl)thiazolidine-4(R)-carboxylic acid]: the “protection against irradiation-induced bowel injury” value in series [4] is “protect mice against irradiation-induced bowel injury”. The “delivery of protective amounts of cysteine” value in series [5] was “deliver effective protective amounts of cysteine”. Moreover, in series [6], the “protection against acetaminophen hepatic and renal toxicity” value is “protect mice against acetaminophen hepatic and renal toxicity”. Also, in series [7] (heart), the “increased glutathione levels, heart” value is reported as 1.5 times. Moreover, the “increased glutathione levels, muscle tissue” value in series [7] (muscle tissue) was 2.5 times.
